Source: patent US20250177566A1, “USE OF CHEMICAL EPIGENETIC MODIFIERS TO MODULATE GENE EXPRESSION” (The University of North Carolina at Chapel Hill, priority 2022, published 2025)
Like-named read-outs stand apart in the source and are kept apart here.

Key:
[1] = system: TRE3G-GFP reporter gene; details: WT FKBP (MS2-FKBPx2), 48 hrs
Protocol: HCT116 cells were transfected with TRE3G-GFP, dCas9, MS2-FKPB*x2, and TRE3G gRNA or NT gRNA. After 48 hrs of 10 nM SLF*-CEMa treatment, flow cytometry was performed and mean fluorescent value was collected. […] TRE3G-GFP, dCas9, MS2-FKBP*2, TRE3G gRNA or NT gRNA were transfected into HCT116 cells. The media was changed to media with 5 nM CEM207 together with 0 nM, 50 nM, 500 nM or 5000 nM of AP1867, respectively. After 48 hrs chemical exposure, flow cytometry was performed and the mean fluorescent value was measured in each group of cells. […] FIGS. 5D and 5E are dose curves of CEMa molecules activating the GFP reporter gene in HCT116 cells using WT FKBP and dCas9 as DNA binding module. HCT116 cells were transfected with dCas9, MS2-FKBPx2, TRE3G-GFP constructs, along with TRE3G gRNA or NT gRNA. Cells were treated with different concentrations of CEMa molecules for 48 hrs before flow cytometry was conducted. […] Error bars represent the standard deviation.
To better understand the activity of SLF*-CEMa in the WT FKBP-based GFP reporter assay, a similar dose-response assay was conducted in HCT116 cells transfected with dCas9 and MS2-FKBPx2 (FIGS. 1D and 1E).
Flow cytometry. All flow cytometry experiments were performed with Attune Nxt as previously described. […] Significance was determined by Student's t-test.

[2] = system: CXCR4; test: CXCR4 mRNA activation in HCT116 stably expressing dCas9 and MS2-FKBP*x2, qRT-PCR; assay type: cell-based, human; details: FIG. 2C; 5 nM; 48 hrs
Protocol: To further explore the activation potential of the SLF*-CEMa, their ability to target endogenous genes was evaluated (FIGS. 2A and 2B). Lentivirus was used to establish a stable HCT116 cell line expressing dCas9 and MS2-FKBP*x2 constructs, selecting for cells with antibiotic resistance. […] All CEMs were screened for their ability to activate the CXCR4 gene at 5 nM (FIG. 2C). RNA extraction and quantitative RT-PCR (qRT-PCR) were performed after 48 hours of CEM treatment.
To determine the optimal treatment concentration of the SLF*-CEMa molecules in this context, HCT116 cells were treated with 1 nM, 5 nM, 25 nM, and 50 nM of CEM203, CEM207, or CEM87. […] After 48 hours, RNA extraction followed by qRT-PCR was performed to evaluate the change in mRNA expression of CXCR4 (FIG. 2D). […] To directly compare this induced activation to other CRISPR-Cas9-based epigenetic activators, dCas9-VPR and dCas9-p300 constructs were virally infected into HCT116 cells and CXCR4 activation assessed in a similar fashion (FIGS. 2A and 2B).
To determine the time at which SLF*-CEMa most effectively induces gene activation, CXCR4 gene expression changes over time were investigated in dCas9 and MS2-FKBP*x2 stably infected HCT116 cells. Cells were treated with either vehicle, […] (FIG. 3A). RNA extraction and qRT-PCR were performed at 12, 24, 48, 72, and 96 hrs time points (FIG. 3B).
To investigate if endogenous gene activation triggered by the SLF*-CEMa compounds is also reversible, HCT116 cells were treated with CEM203 (50 nM) or CEM207 (25 nM) for 24 hours after transfecting CXCR4 gRNA, and then the CEMs were removed by media exchange at various time points. […] Likewise, it was investigated whether treatment with excess AP1867 could further reverse gene activation, potentially in a more robust fashion than with washout alone if there is any remaining intracellular SLF*-CEMa. To test this, after 24 hours of SLF*-CEMa treatment, a media exchange containing 20 μM AP1867 was performed (FIGS. 3C and 3D).
RNA extraction and qRT-PCR. All RNA extraction experiments were conducted in 12-well plate format. Culturing medium was removed, and cells were washed with 1×PBS, following with 0.05% trypsin to disassociate. After being quenched by medium and centrifuged, cells were washed with 1×PBS, and the RNA extraction was performed by using RNeasy Plus Mini kit (Qiagen, 74134). RT-qPCR was conducted by using RNA-to CT 1-step kit (Thermo Fisher Scientific, 4389986). The primer sets used in quantifying each gene can be found in Table 4.

[3] = system: TRE3G-GFP reporter gene; test: TRE3G-GFP reporter gene activation in HCT116, dCas9 + MS2-FKBP*x2 (F36V) system, flow cytometry; assay type: cell-based, human; set-up: fold change, GFP: reference not given here; details: for fold change, GFP (Treated vs Non-Treated): FIG. 1E, 48 hours; for fold change, GFP: 48 hrs

Structure (SMILES): CC[C@H](C(=O)N1CCCC[C@H]1C(=O)O[C@H](CCc1ccc(OC)c(OC)c1)c1cccc(OCC(=O)NCCOCCOCCOCCNC(=O)C[C@@H]2N=C(c3ccc(Cl)cc3)c3cc(OC)ccc3-n3c(C)nnc32)c1)c1cc(OC)c(OC)c(OC)c1 [CEM202, (1R)-1-(3-((17-((4S)-6-(4-Chlorophenyl)-8-methoxy-1-methyl-4/I-benzo[f][1,2,4]triazolo[4,3-a][1,4]diazepin-4-yl)-2,16-dioxo-6,9,12-trioxa-3,15-diazaheptadecyl)oxy)phenyl)-3-(3,4-dimethoxyphenyl) propyl (2S)-1-((S)-2-(3,4,5-trimethoxyphenyl)butanoyl) piperidine-2-carboxylate]
- fold change, GFP (Treated vs Non-Treated) ([1]; FIG. 5D, 10 nM): 0.9 fold
- fold change, GFP (Treated vs Non-Treated) ([1]; FIG. 5D, 25 nM): 1.0 fold
- fold change, GFP (Treated vs Non-Treated) ([1]; FIG. 5D, 50 nM): 1.1 fold
- fold change, GFP (Treated vs Non-Treated) ([1]; FIG. 5D, 100 nM): 5.3 fold
- fold change, GFP (Treated vs Non-Treated) ([1]; FIG. 5D, 200 nM): 11.6 fold
- fold change, GFP (Treated vs Non-Treated) ([1]; FIG. 5D, 400 nM): 17.5 fold
- fold change, GFP (Treated vs Non-Treated) ([1]; FIG. 5E, 10 nM): 0.9 fold
- fold change, GFP (Treated vs Non-Treated) ([1]; FIG. 5E, 25 nM): 0.9 fold
- fold change, GFP (Treated vs Non-Treated) ([1]; FIG. 5E, 50 nM): 1.0 fold
- fold change, GFP (Treated vs Non-Treated) ([1]; FIG. 5E, 100 nM): 1.0 fold
- fold change, GFP (Treated vs Non-Treated) ([1]; FIG. 5E, 200 nM): 1.0 fold
- fold change, GFP (Treated vs Non-Treated) ([1]; FIG. 5E, 400 nM): 1.0 fold
- fold change, CXCR4 mRNA (Treated vs Non-Treated) [2]: 3.5 fold
- fold change, GFP (Treated vs Non-Treated) ([3]; TRE3G gRNA, 0.25 nM): 1.1 fold
- fold change, GFP (Treated vs Non-Treated) ([3]; TRE3G gRNA, 0.5 nM): 1.3 fold
- fold change, GFP (Treated vs Non-Treated) ([3]; TRE3G gRNA, 0.75 nM): 1.3 fold
- fold change, GFP (Treated vs Non-Treated) ([3]; TRE3G gRNA, 1 nM): 1.5 fold
- fold change, GFP (Treated vs Non-Treated) ([3]; TRE3G gRNA, 2.5 nM): 2.8 fold
- fold change, GFP (Treated vs Non-Treated) ([3]; TRE3G gRNA, 5 nM): 12.5 fold
- fold change, GFP (Treated vs Non-Treated) ([3]; TRE3G gRNA, 7.5 nM): 13.9 fold
- fold change, GFP (Treated vs Non-Treated) ([3]; TRE3G gRNA, 10 nM): 15.0 fold
- fold change, GFP (Treated vs Non-Treated) ([3]; TRE3G gRNA, 25 nM): 22.0 fold
- fold change, GFP (Treated vs Non-Treated) ([3]; TRE3G gRNA, 50 nM): 28.8 fold
- fold change, GFP (Treated vs Non-Treated) ([3]; TRE3G gRNA, 75 nM): 27.1 fold
- fold change, GFP (Treated vs Non-Treated) ([3]; TRE3G gRNA, 100 nM): 25.5 fold
- fold change, GFP ([3]; FIG. 5A, NT gRNA, 10 nM): 0.5 fold
- fold change, GFP ([3]; FIG. 5A, TRE3G gRNA, 10 nM): 8.4 fold
- fold change, GFP ([3]; FIG. 5C, NT gRNA, 0.25 nM): 1.0 fold
- fold change, GFP ([3]; FIG. 5C, NT gRNA, 0.5 nM): 1.0 fold
- fold change, GFP ([3]; FIG. 5C, NT gRNA, 0.75 nM): 1.1 fold
- fold change, GFP ([3]; FIG. 5C, NT gRNA, 1 nM): 1.0 fold
- fold change, GFP ([3]; FIG. 5C, NT gRNA, 2.5 nM): 1.0 fold
- fold change, GFP ([3]; FIG. 5C, NT gRNA, 5 nM): 1.1 fold
- fold change, GFP ([3]; FIG. 5C, NT gRNA, 7.5 nM): 1.1 fold
- fold change, GFP ([3]; FIG. 5C, NT gRNA, 10 nM): 1.2 fold
- fold change, GFP ([3]; FIG. 5C, NT gRNA, 25 nM): 1.3 fold
- fold change, GFP ([3]; FIG. 5C, NT gRNA, 50 nM): 1.4 fold
- fold change, GFP ([3]; FIG. 5C, NT gRNA, 75 nM): 1.4 fold
- fold change, GFP ([3]; FIG. 5C, NT gRNA, 100 nM): 1.4 fold
